Measured values from patent US11980594B2, “Composition and method for treating a drug-resistant cancer” (NOVELWISE PHARMACEUTICAL CORPORATION, priority 2021, dated 2024).
Read-outs that look alike come from different tables or passages of the source.

What was measured:
c-Myc and cyclin D1 = assay: Western blot of c-Myc and cyclin D1 in GBM-R cells; assay type: cell-based, human; conditions: 5 or 10 μM BMX with or without 50 μM TMZ, 48 hrs, FIG. 3B
Procedure: The cells were collected and lysed in RIPA lysis buffer (EMD Millipore Billerica, Mass., USA, 10×RIPA buffer) containing a protease inhibitor. Protein concentration was determined using a protein assay kit (Bio-Rad Laboratories, Hercules, Calif., USA). The SDS loading buffer was mixed with the protein samples. Proteins (20 μg/lane) were separated using 8%-12% SDS-PAGE and transferred to a PVDF membrane, which was blocked with 5% bovine serum albumin at room temperature for 1 hr in tris-buffered saline (TBS)-Tween 20 (0.5%; TBS-T), incubated with primary antibodies overnight at […], and then incubated with horseradish peroxidase (HRP)-conjugated secondary antibodies at room temperature for 1 hr. After washing thoroughly with TBS-T, the HRP signals were detected with a chemical HRP substrate. Signal of each target protein was visualized by incubation with an enhanced chemiluminescent reagent and exposure to X-ray film.

HT29 cells [1] = assay: CRC cell proliferation assay (CCK8), HT29; assay type: cell-based; conditions: Homo sapiens
Procedure: Three CRC cell lines HT29, HCT116 and RKO were used in this study. The American Type Culture Collection (ATCC; Manassas, Va., USA) provided human CRC cell lines HT29 (ATCC HTB-38; mutant TP53, p.R273H; APC frame shift, p. E1554fs; wild type β-catenin), HCT116 (ATCC CCL-247; wild type TP53; wild type APC; deletion β-catenin, p. S45del) and RKO (ATCC CRL-2577; wild type TP53; wild type APC; wild type β-catenin). Three CRC cells lines as listed above were cultured in adherent culture condition, maintained at 37° C. inside the cell incubation containing 5% CO2. The two cell lines of HCT-116 and HT-29 cells were cultured in McCoy's 5A medium with supplemented 10% fetal bovine serum (Gibco; Thermo Fischer Scientific, Grand Island, N.Y., USA)), 1% penicillin and 1% streptomycin. RKO cell was cultured in MEM medium with supplemented 10% FBS, 1% penicillin, 1% streptomycin and 1% sodium pyruvate. The cell cultures were passaged by trypsinization every three days. BM-BMX (BMX), (E)-2-(4-Methoxybenzyloxy)-3-prenyl-4-methoxy-N-hydroxycinamide, was provided by Nature Wise Biotech & Medicals Corporation (Taipei, Taiwan).
We plated 4000 CRC cells per well in 96-well plates and allowed them to adhere overnight. To validate cell line responsiveness to BMX and TMZ monotherapy, the cells were treated with different doses of BMX or TMZ for 24, 48, and 72 hrs. To confirm cell responsiveness to the BMX-TMZ combination, cells were either treated with different doses of TMZ ([…]) with or without BMX (5 μM) for 24, 48, and 72 hrs or with different doses of BMX (0-10 μM) with or without TMZ (50 μM) for 24, 48, and 72 hrs. Following treatment, the absorption value was measured using a CCK8 kit (Targetmol, Shanghai, China) at the indicated time points. The results are reported as the mean±standard deviation of at least three replicates.

A172-R cells = assay: Flow cytometric analysis of the DNA cell cycle, A172-R; assay type: cell-based, human; conditions: 10 μM BMX alone, 48 hrs
Procedure: For the DNA cell cycle, following treatment with different doses of BMX (0-10 μM) in the presence or absence of TMZ (50 μM) for 48 hrs, the cells were harvested through trypsinization, washed twice with phosphate-buffered saline, and fixed in methanol. The cells were then washed again, subjected to RNase A at a final concentration of 0.05 mg/mL (Sigma-Aldrich; Merck Millipore, Darmstadt, Germany), and incubated with 10 μg/mL propidium iodide (PI; Sigma-Aldrich; Merck Millipore) at 4° C. for 15 min in the dark. Cell cycle analysis was conducted using a fluorescence-activated cell sorting (FACS) flow cytometer (Attune NxT flow cytometer, Thermo Fisher Scientific).

HCT116 cells [2] = assay: Annexin V/PI flow cytometric analysis of apoptosis, HCT116; assay type: cell-based, human; conditions: BMX, 48 hrs
Procedure: (§1) Apoptosis induction in different doses of BMX (0-10 μM) in the presence or absence of TMZ (50 μM) was assayed by the detection of membrane externalization of phosphatidylserine with the with the CF®488A Annexin V and PI Apoptosis Kit (Fremont, Calif., USA) following the manufacturer's instructions. All samples were then immediately analyzed by flow cytometry.

HT29 cells [3] = assay: Annexin V/PI flow cytometric analysis of apoptosis, HT29; assay type: cell-based, human; conditions: BMX, 48 hrs
Procedure: as §1

HCT116 cells [4] = assay: Clonogenic (colony formation) assay, HCT116; assay type: cell-based; conditions: Homo sapiens, HCT-116, 336 h, 14 days, read-out: IC50 values of TMZ, clonogenic assay
Procedure: For the anchorage-dependent growth assay, 1000 cells were resuspended in the medium and seeded in 6-well plates. […] After 14 days, the media were removed and the cells were washed and fixed with 4% paraformaldehyde for 30 min, and stained with 0.1% crystal violet for 20 min at 25° C. The intensity of crystal violet was quantified by the absorbance of 570 nm after dissolving the stained cells with dimethyl sulfoxide (DMSO). The results are expressed as the average colony±SE from three independent experiments.

Compound | levels of proliferative markers c-Myc and cyclin D1 (c-Myc and cyclin D1) | IC50 (HT29 cells [1]; HT-29, 24 h, BMX alone, 24 hrs, read-out: IC50 of BMX) [µM] | IC50 (HT29 cells [1]; HT-29, 24 h, TMZ 50 μM combined with different concentrations of BMX, 24 hrs, read-out: IC50 of BMZ) [µM] | IC50 (HT29 cells [1]; HT-29, 48 h, BMX alone, 48 hrs, read-out: IC50 of BMX) [µM] | IC50 (HT29 cells [1]; HT-29, 48 h, TMZ 50 μM combined with different concentrations of BMX, 48 hrs, read-out: IC50 of BMZ) [µM] | IC50 (HT29 cells [1]; HT-29, 72 h, BMX alone, 72 hrs, read-out: IC50 of BMX) [µM] | IC50 (HT29 cells [1]; HT-29, 72 h, TMZ 50 μM combined with different concentrations of BMX, 72 hrs, read-out: IC50 of BMZ) [µM] | cells arrested in G0/G1 phase (A172-R cells) [%] | early apoptotic cells (HCT116 cells [2]) [%] | early apoptotic cells (HT29 cells [3]) | IC50 (HT29 cells [1]; HT-29, 24 h, BMX 5 μM combined with different doses of TMZ, 24 hrs, read-out: IC50 of TMZ) [µM] | IC50 (HT29 cells [1]; HT-29, 24 h, TMZ alone, 24 hrs, read-out: IC50 of TMZ) [µM] | IC50 (HT29 cells [1]; HT-29, 48 h, BMX 5 μM combined with different doses of TMZ, 48 hrs, read-out: IC50 of TMZ) [µM] | IC50 (HT29 cells [1]; HT-29, 48 h, TMZ alone, 48 hrs, read-out: IC50 of TMZ) [µM] | IC50 (HT29 cells [1]; HT-29, 72 h, TMZ alone, 72 hrs, read-out: IC50 of TMZ) [µM] | IC50 (HCT116 cells [4]) [µM]
COc1ccc(COc2c(/C=C/C(=O)NO)ccc(OC)c2CC=C(C)C)cc1 [BMX, (E)-2-(4-Methoxybenzyloxy)-3-prenyl-4-methoxy-N-hydroxycinamide] | could decrease their levels | 42.6 ± 2.4 | > 10 | 9.9 ± 0.5 | 9.1 ± 0.2 | 2.9 ± 0.2 | 2.2 ± 0.1 | 70.34 | ≤ 49.34 | up to 23.78% | – | – | – | – | – | –
Cn1nnc2c(C(N)=O)ncn2c1=O [TMZ, Temozolomide, reference compound] | – | – | – | – | – | – | – | – | – | – | > 400 | > 1000 | 128 ± 18.3 | 931 ± 47.7 | 258 ± 20.5 | 138 ± 22.7
